Assay results: patent US9113629B2, “4-amino-6-(4-substituted-phenyl)-picolinates and 6-amino-2-(4-substituted-phenyl)-pyrimidine-4-carboxylates and their use as herbicides” (DOW AGROSCIENCES LLC, priority 2013, dated 2015)
Read-outs that look alike come from different tables or passages of the source.

Assays:
[1] = system: Key Broadleaf Weed and Crop Species; experiment: Post-emergent Test II herbicidal activity (Table 5); type: in vivo; conditions: post-emergence, 336 h, 14 days after application; for pest or weed control at 70 g/ha: application rate 70 g ai/ha; for pest or weed control at 140 g/ha: application rate 140 g ai/ha
Procedure, shortened: (§1)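 Percent injury, 0 (none) to 100 (complete kill), was judged visually 14 d after spraying young plants at the first or second true leaf stage with compound in an acetone/DMSO aqueous carrier at 187 L/ha. Plants were kept in a greenhouse at 23–29 °C by day.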

[2] = system: Key Grass and Sedge Weeds as well as Grass Crops; experiment: Post-emergent Test II herbicidal activity (Table 6); type: in vivo; conditions: post-emergence, 336 h; for pest or weed control at 70 g/ha: 70 g ai/ha; for pest or weed control at 140 g/ha: 140 g ai/ha
Procedure, shortened: as §1

[3] = ABUTH: velvetleaf (Abutilon theophrasti), read-out: Visual Growth Reduction (%) 14 Days After Application, ABUTH
[4] = AMARE: redroot pigweed (Amaranthus retroflexus), read-out: Visual Growth Reduction (%) 14 Days After Application, AMARE
[5] = BRSNN: oilseed-rape, canola (Brassica napus), read-out: Visual Growth Reduction (%) 14 Days After Application, BRSNN
[6] = CHEAL: lambsquarters (Chenopodium album), read-out: Visual Growth Reduction (%) 14 Days After Application, CHEAL
[7] = EPHHL: wild poinsettia (Euphorbia heterophylla), read-out: Visual Growth Reduction (%) 14 Days After Application, EPHHL
[8] = HELAN: sunflower (Helianthus annuus), read-out: Visual Growth Reduction (%) 14 Days After Application, HELAN
[9] = VIOTR: wild pansy (Viola tricolor), read-out: Visual Growth Reduction (%) 14 Days After Application, VIOTR
[10] = CYPES: yellow nutsedge (Cyperus esculentus), read-out: Visual Growth Reduction (%) 14 Days After Application, CYPES
[11] = DIGSA: crabgrass (Digitaria sanguinalis), read-out: Visual Growth Reduction (%) 14 Days After Application, DIGSA
[12] = ECHCG: barnyardgrass (Echinochloa crus-galli), read-out: Visual Growth Reduction (%) 14 Days After Application, ECHCG
[13] = ORYSA: rice (Oryza sativa), crop, read-out: Visual Growth Reduction (%) 14 Days After Application, ORYSA
[14] = SETFA: giant foxtail (Setaria faberi), read-out: Visual Growth Reduction (%) 14 Days After Application, SETFA
[15] = SORVU: grain sorghum (Sorghum vulgare), read-out: Visual Growth Reduction (%) 14 Days After Application, SORVU
[16] = TRZSS (wheat, Triticum aestivum), crop, read-out: Visual Growth Reduction (%) 14 Days After Application, TRZSS
[17] = ZEAMX: maize, corn (Zea mays), crop, read-out: Visual Growth Reduction (%) 14 Days After Application, ZEAMX

COc1c(N)nc(-c2ccc(Br)cc2)nc1C(=O)O [Compound 54]
30 to 44%: pest or weed control at 70 g/ha [1, 9]
75 to 84%: pest or weed control at 70 g/ha [2, 14] | pest or weed control at 140 g/ha [2, 14] | pest or weed control at 140 g/ha [2, 15]
0 to 29%: pest or weed control at 70 g/ha [2, 11] | pest or weed control at 70 g/ha [2, 13] | pest or weed control at 140 g/ha [2, 13]
85 to 94%: pest or weed control at 70 g/ha [1, 3] | pest or weed control at 140 g/ha [1, 3] | pest or weed control at 70 g/ha [1, 8]
60 to 74%: pest or weed control at 140 g/ha [2, 11] | pest or weed control at 70 g/ha [2, 15]
95 to 100%: pest or weed control at 70 g/ha [1, 4] | pest or weed control at 140 g/ha [1, 4] | pest or weed control at 70 g/ha [1, 5] | pest or weed control at 140 g/ha [1, 5] | pest or weed control at 70 g/ha [1, 6] | pest or weed control at 140 g/ha [1, 6] | pest or weed control at 70 g/ha [1, 7] | pest or weed control at 140 g/ha [1, 7] | pest or weed control at 140 g/ha [1, 8] | pest or weed control at 140 g/ha [2, 10] | pest or weed control at 70 g/ha [2, 12] | pest or weed control at 140 g/ha [2, 12] | pest or weed control at 70 g/ha [2, 17] | pest or weed control at 140 g/ha [2, 17]
45 to 59%: pest or weed control at 140 g/ha [1, 9] | pest or weed control at 70 g/ha [2, 10] | pest or weed control at 70 g/ha [2, 16] | pest or weed control at 140 g/ha [2, 16]
